Laboratory results taken from article PMC9841533, “Microtubule-Stabilizing 1,2,4-Triazolo[1,5-a]pyrimidines as Candidate Therapeutics for Neurodegenerative Disease: Matched Molecular Pair Analyses and Computational Studies Reveal New Structure–Activity Insights” (Journal of Medicinal Chemistry, 2022).
Structures can show the parent of a compound that is named as a salt. Where two headings read alike, the source gives them in different places.

Key:
[1] = tested on: total α-tubulin (α-Tub) levels in QBI293 cells; assay: QBI293 cell assay: total α-tubulin ELISA; assay type: cell-based
Experimental: (§1) All test compounds were initially screened in the same cell-based (QBI293) assay of MT stabilization used in our previous SAR studies[11],[12] so as to allow direct comparison with literature data. Changes in levels of acetylated α-tubulin (AcTub) and total α-tubulin (α-Tub), relative to vehicle-treated negative control cells, were determined after 4 h of incubation with test compounds at 1 and 10 μM. To account for possible day-to-day differences in the responsiveness of cells to MT-stabilizing treatment, compound-dependent changes in AcTub levels relative to DMSO-treated cells were also normalized to the corresponding changes caused by 100 nM of 5 that was used as a positive control. In addition, docking studies, binding free energy calculations, and in selected cases, molecular dynamic simulations were conducted using an X-ray structure of the vinca and seventh sites (PDB: 5NJH,[10]7CLD[13]). […] For selected compounds, additional studies included testing in the QBI293 cell AcTub assay at additional compound concentrations, and/or evaluation of test compounds for their ability to prevent MT collapse in primary neuron cultures treated with the phosphatase inhibitor, okadaic […] (OA). Finally, cytotoxicity studies in QBI293 and HeLa cells were also conducted for representative examples (Supporting Information).
(§2) Compound-induced changes in acetylated-tubulin and α-tubulin in QBI293 cells or primary mouse or rat neurons were as previously described.[11],[12] […] The plated cells were incubated overnight, after which the medium was aspirated and fresh medium containing vehicle (0.25–0.3% DMSO) or test compound was added. Test compounds were prepared as 4–20 mM stock solutions in 100% DMSO, and these were diluted in culture medium prior to addition to the QBI293 cells. After 4 h incubation, whole-cell extracts were prepared from the QBI293 cells as described[11] and the supernatant fraction from each sample was assessed for protein content by bicinchoninic acid (BCA) assay. The amount of acetyl-tubulin (AcTub) and α-tubulin (αTub) within the cell extract samples was quantified using specific enzyme-linked immunosorbent assays (ELISA), as previously described.[11] Acetyl-tubulin levels were determined in a similar manner in rat or mouse cortical neuron cultures in which embryonic dissociated cortical neurons were plated at 3 × 10^5 cells/well in poly-D-lysine-coated 12-well plates, essentially as previously described.[11] […] Culture homogenates were prepared for the determination of AcTub levels by ELISA as previously described.[11]

[2] = tested on: acetylated α-tubulin (AcTub) levels in QBI293 cells; assay: QBI293 cell assay of MT stabilization: acetylated α-tubulin ELISA; assay type: cell-based
Experimental: as §1, §2

[3] = 4 h, 1 uM compound, read-out: AlfaTub (1uM)
[4] = 4 h, 10 uM compound, read-out: AlfaTub (10 uM)
[5] = 4 h incubation, 1 μM, read-out: α-Tub 1 μM, fold-change compared to vehicle (DMSO)-treated cells
[6] = 4 h incubation, 10 μM, read-out: α-Tub 10 μM, fold-change compared to vehicle (DMSO)-treated cells
[7] = 4 h, 1 uM compound, read-out: AcTub (1uM)
[8] = 4 h, 10 uM compound, read-out: AcTub (10 uM)
[9] = 4 h incubation, 1 μM, read-out: AcTub 1 μM, fold-change compared to vehicle (DMSO)-treated cells
[10] = 4 h incubation, 10 μM, read-out: AcTub 10 μM, fold-change compared to vehicle (DMSO)-treated cells

Structure (SMILES) | fold induction at 1 µM [1, 3] | fold induction at 10 µM [1, 4] | fold induction at 1 µM [1, 5] | fold induction at 10 µM [1, 6] | AcTub (1 uM - normalized) ([2]; 1 uM compound) | AcTub (10 uM - normalized) ([2]; 10 uM compound) | fold induction at 1 µM [2, 7] | fold induction at 10 µM [2, 8] | AcTub 1 μM, fold-change compared to positive control compound 5 (100 nM) (in parentheses) ([2]; 4 h incubation, 1 μM) | fold induction at 1 µM [2, 9] | AcTub 10 μM, fold-change compared to positive control compound 5 (100 nM) (in parentheses) ([2]; 4 h incubation, 10 μM) | fold induction at 10 µM [2, 10] | total α-Tub at higher (30 μM) concentration ([1]; 4 h, 30 μM) | cellular AcTub at higher (30 μM) concentration ([2]; 4 h, 30 μM)
CC1(CNc2c(-c3c(F)cc(F)cc3F)c(Cl)nc3ncnn23)CC1 [Compound 13, 5-Chloro-N-((1-methylcyclopropyl)methyl)-6-(2,4,6-trifluorophenyl)-[1,2,4]triazolo[1,5-a]pyrimidin-7-amine] | 1.04 | 0.97 | 1.04 ± 0.07 | 0.97 ± 0.02 | 0.26 | 0.49 | 2.68 | 5.06 | 0.26 fold-change | 2.68 ± 0.24 | 0.49 fold-change | 5.06 ± 0.23 |  | 
Fc1cc(F)c(-c2c(Cl)nc3ncnn3c2NCC2(C(F)(F)F)CC2)c(F)c1 [Compound 14, 5-Chloro-N-((1-(trifluoromethyl)cyclopropyl)methyl)-6-(2,4,6-trifluorophenyl)-[1,2,4]triazolo[1,5-a]pyrimidin-7-amine] | 1 | 0.97 | 1 ± 0.04 | 0.97 ± 0.09 | 0.22 | 0.34 | 1.3 | 2 | 0.22 fold-change | 1.3 ± 0.09 | 0.34 fold-change | 2 ± 0.36 |  | 
Fc1cc(F)c(-c2c(Cl)nc3ncnn3c2NCC2CCC2)c(F)c1 [Compound 15, 5-Chloro-N-(cyclobutylmethyl)-6-(2,4,6-trifluorophenyl)-[1,2,4]triazolo[1,5-a]pyrimidin-7-amine] | 1.07 | 0.96 | 1.07 ± 0.01 | 0.96 ± 0.03 | 0.22 | 0.44 | 1.55 | 3.08 | 0.22 fold-change | 1.55 ± 0.03 | 0.44 fold-change | 3.08 ± 0.03 |  | 
C[C@H](Nc1c(-c2c(F)cc(F)cc2F)c(Cl)nc2ncnn12)C1CC1 [Compound 16, (S)-5-Chloro-N-(1-cyclopropylethyl)-6-(2,4,6-trifluorophenyl)-[1,2,4]triazolo[1,5-a]pyrimidin-7-amine] | 0.95 | 0.97 | 0.95 ± 0.02 | 0.97 ± 0.02 | 0.10 | 0.15 | 0.96 | 1.56 | 0.10 fold-change | 0.96 ± 0.06 | 0.15 fold-change | 1.56 ± 0.06 |  | 
C[C@@H](Nc1c(-c2c(F)cc(F)cc2F)c(Cl)nc2ncnn12)C1CC1 [Compound 17, (R)-5-Chloro-N-(1-cyclopropylethyl)-6-(2,4,6-trifluorophenyl)-[1,2,4]triazolo[1,5-a]pyrimidin-7-amine] | 1.06 | 1.16 | 1.06 ± 0.07 | 1.16 ± 0.02 | 0.19 | 0.4 | 1.95 | 3.99 | 0.19 fold-change | 1.95 ± 0.18 | 0.40 fold-change | 3.99 ± 0.1 |  | 
C[C@H](Nc1c(-c2c(F)cc(OCCCCO)cc2F)c(Cl)nc2ncnn12)C(F)(F)F [Compound 19, (S)-4-(4-(5-Chloro-7-((1,1,1-trifluoropropan-2-yl)amino)-[1,2,4]triazolo[1,5-a]pyrimidin-6-yl)-3,5-difluorophenoxy)butan-1-ol] | 0.62 | 0.35 | 0.62 ± 0.05 | 0.35 ± 0.04 | 0.59 | 0.6 | 7.3 | 7.04 | 0.59 fold-change | 7.3 ± 1.51 | 0.6 fold-change | 7.04 ± 0.04 |  | 
C[C@H](Nc1c(-c2c(F)cc(OCCCCCO)cc2F)c(Cl)nc2ncnn12)C(F)(F)F [Compound 20, (S)-5-(4-(5-Chloro-7-((1,1,1-trifluoropropan-2-yl)amino)-[1,2,4]triazolo[1,5-a]pyrimidin-6-yl)-3,5-difluorophenoxy)pentan-1-ol] | 0.37 | 0.28 | 0.43 ± 0.07 | 0.36 ± 0.03 | 0.50 | 0.96 | 3.73 | 7.12 | 0.50 fold-change | 3.73 ± 0.22 | 0.96 fold-change | 7.12 ± 0.29 |  | 
C[C@@H](Nc1c(-c2c(F)cc(OCCCN(C)C)cc2F)c(Cl)nc2ncnn12)C(C)(C)C [Compound 24, (R)-3-(4-(5-Chloro-7-((3,3-dimethylbutan-2-yl)amino)-[1,2,4]triazolo[1,5-a]pyrimidin-6-yl)-3,5-difluorophenoxy)-N,N-dimethylpropan-1-aminium Formate] |  |  |  |  |  |  |  |  |  |  |  |  | without a reduction of total α-Tub | further concentration-dependent decrease in cellular AcTub
CN(C)CCCOc1cc(F)c(-c2c(Cl)nc3ncnn3c2NCC(C)(C)C)c(F)c1 [Compound 26, 5-Chloro-6-(4-(3-(dimethylamino)propoxy)-2,6-difluorophenyl)-N-neopentyl-[1,2,4]triazolo[1,5-a]pyrimidin-7-amine] | 0.67 | 0.73 | 0.69 ± 0.03 | 0.73 ± 0.07 | 1.12 | 0.1 | 5.98 | 0.52 | 1.12 fold-change | 5.98 ± 0.11 | 0.10 fold-change | 0.52 ± 0.07 |  | 
CN(C)CCCOc1cc(F)c(-c2c(Cl)nc3ncnn3c2NCC2(C)CC2)c(F)c1 [Compound 28, 5-Chloro-6-(4-(3-(dimethylamino)propoxy)-2,6-difluorophenyl)-N-((1-methylcyclopropyl)methyl)-[1,2,4]triazolo[1,5-a]pyrimidin-7-amine] | 0.84 | 1.1 | 0.84 ± 0.12 | 1.1 ± 0.2 | 0.53 | 0.09 | 2.81 | 0.49 | 0.53 fold-change | 2.81 ± 0.35 | 0.09 fold-change | 0.49 ± 0.03 |  | 
CN(C)CCCOc1cc(F)c(-c2c(Cl)nc3ncnn3c2NCC2(C(F)(F)F)CC2)c(F)c1 [Compound 29, 5-Chloro-6-(4-(3-(dimethylamino)propoxy)-2,6-difluorophenyl)-N-((1-(trifluoromethyl)cyclopropyl)methyl)-[1,2,4]triazolo[1,5-a]pyrimidin-7-amine] | 0.82 | 1.24 | 0.82 ± 0.01 | 1.24 ± 0.13 | 0.63 | 0.14 | 3.75 | 0.81 | 0.63 fold-change | 3.75 ± 0.13 | 0.14 fold-change | 0.81 ± 0.09 |  | 
